{"source": "patent US20100152429A1", "about": "“SODIUM SALT OF DISACCHARIDE COMPOUND, METHOD FOR PRODUCING THE SAME, AND USE OF THE SAME” (Eisai R&D Management Co., Ltd., priority 2006, published 2010)", "experiment": "Storage Safety Test: impurity generation on storage at 25° C., HPLC;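 further: HPLC peak area percentages of three decomposition products, each sample run alongside a methanol-only blank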", "format": "physicochemical", "conditions": "HPLC percentage of area", "key": {"[1]": {"conditions": "0 days, stored in glass bottles at 25° C."}, "[2]": {"conditions": "1.0 days, stored at 25° C., listed as 3.67 Na salt"}, "[3]": {"conditions": "1.9 days, stored at 25° C., listed as 3.67 Na salt"}, "[4]": {"conditions": "4.5 days, stored at 25° C., listed as 3.67 Na salt"}, "[5]": {"conditions": "1.0 days, stored at 25° C., listed as 3.93 Na salt"}, "[6]": {"conditions": "1.9 days, stored at 25° C., listed as 3.93 Na salt"}, "[7]": {"conditions": "4.5 days, stored at 25° C., listed as 3.93 Na salt"}}, "method": "When HPLC analysis was performed under the conditions shown in Table 1 for each solution and blank solution (methanol only), three types of decomposition product were identified, and the generation ratio (converted to a monthly basis) was calculated for each of the three decomposition products (impurities A, B and C) as a percentage of area."}
{"smiles": "CCCCCC/C=C\\CCCCCCCCCC(=O)N[C@H]1[C@H](OC[C@H]2O[C@H](OP(=O)(O)O)[C@H](NC(=O)CC(=O)CCCCCCCCCCC)[C@@H](OCCCCCCCCCC)[C@@H]2O)O[C@H](COC)[C@@H](OP(=O)(O)O)[C@@H]1OCC[C@@H](CCCCCCC)OC", "note": "[Example 2]", "values": [{"measurement": "Impurity A", "setting": "[1]", "value": 0.00}, {"measurement": "Impurity B", "setting": "[1]", "value": 0.00}, {"measurement": "Impurity C", "setting": "[1]", "value": 0.00}, {"measurement": "Impurity A", "setting": "18 days, stored at 25° C.", "value": 0.00}, {"measurement": "Impurity B", "setting": "18 days, stored at 25° C.", "value": 0.00}, {"measurement": "Impurity C", "setting": "18 days, stored at 25° C.", "value": 0.17}]}
{"smiles": "CCCCCCC=CCCCCCCCCCC(=O)NC1C(OCC2OC(OP(=O)([O-])[O-])C(NC(=O)CC(=O)CCCCCCCCCCC)C(OCCCCCCCCCC)C2O)OC(COC)C(OP(=O)([O-])[O-])C1OCCC(CCCCCCC)OC.[Na+].[Na+].[Na+].[Na+]", "note": "(stereo not drawn) [Comparative Example 1, reference compound]", "values": [{"measurement": "Impurity A", "setting": "[1]", "value": 0.00}, {"measurement": "Impurity B", "setting": "[1]", "value": 0.18}, {"measurement": "Impurity C", "setting": "[1]", "value": 0.00}, {"measurement": "Impurity A", "setting": "1.0 days, stored at 25° C.", "value": 0.06}, {"measurement": "Impurity B", "setting": "1.0 days, stored at 25° C.", "value": 0.36}, {"measurement": "Impurity C", "setting": "1.0 days, stored at 25° C.", "value": 0.00}, {"measurement": "Impurity A", "setting": "1.9 days, stored at 25° C.", "value": 0.08}, {"measurement": "Impurity B", "setting": "1.9 days, stored at 25° C.", "value": 0.48}, {"measurement": "Impurity C", "setting": "1.9 days, stored at 25° C.", "value": 0.00}, {"measurement": "Impurity A", "setting": "4.5 days, stored at 25° C.", "value": 0.12}, {"measurement": "Impurity B", "setting": "4.5 days, stored at 25° C.", "value": 0.67}, {"measurement": "Impurity C", "setting": "4.5 days, stored at 25° C.", "value": 0.00}, {"measurement": "Impurity C", "setting": "8.8 days, stored at 25° C.", "value": 0.00}, {"measurement": "Impurity C", "setting": "29.5 days, stored at 25° C.", "value": 0.03}]}
{"smiles": "CCCCCC/C=C\\CCCCCCCCCC(=O)N[C@H]1[C@H](OC[C@H]2O[C@H](OP(=O)([O-])[O-])[C@H](NC(=O)CC(=O)CCCCCCCCCCC)[C@@H](OCCCCCCCCCC)[C@@H]2O)O[C@H](COC)[C@@H](OP(=O)([O-])[O-])[C@@H]1OCC[C@@H](CCCCCCC)OC.[Na+].[Na+].[Na+].[Na+]", "note": "[Example 3]", "values": [{"measurement": "Impurity A", "setting": "[1]", "value": 0.00}, {"measurement": "Impurity C", "setting": "[1]", "value": 0.00}, {"measurement": "Impurity B", "setting": "0 days, stored in glass bottles at 25° C., listed as 3.67 Na salt", "value": 0.08}, {"measurement": "Impurity C", "setting": "1.0 days, stored at 25° C.", "value": 0.00}, {"measurement": "Impurity A", "setting": "[2]", "value": 0.00}, {"measurement": "Impurity B", "setting": "[2]", "value": 0.12}, {"measurement": "Impurity C", "setting": "1.9 days, stored at 25° C.", "value": 0.00}, {"measurement": "Impurity A", "setting": "[3]", "value": 0.01}, {"measurement": "Impurity B", "setting": "[3]", "value": 0.09}, {"measurement": "Impurity C", "setting": "4.5 days, stored at 25° C.", "value": 0.01}, {"measurement": "Impurity A", "setting": "[4]", "value": 0.01}, {"measurement": "Impurity B", "setting": "[4]", "value": 0.13}, {"measurement": "Impurity C", "setting": "8.8 days, stored at 25° C.", "value": 0.01}, {"measurement": "Impurity C", "setting": "29.5 days, stored at 25° C., listed as 3.67 Na salt", "value": 0.07}]}
{"smiles": "CCCCCC/C=C\\CCCCCCCCCC(=O)N[C@H]1[C@H](OC[C@H]2O[C@H](OP(=O)([O-])[O-])[C@H](NC(=O)CC(=O)CCCCCCCCCCC)[C@@H](OCCCCCCCCCC)[C@@H]2O)O[C@H](COC)[C@@H](OP(=O)([O-])[O-])[C@@H]1OCC[C@@H](CCCCCCC)OC.[Na+].[Na+].[Na+].[Na+]", "note": "[Example 4]", "values": [{"measurement": "Impurity B", "setting": "0 days, stored in glass bottles at 25° C., listed as 3.93 Na salt", "value": 0.14}, {"measurement": "Impurity A", "setting": "[5]", "value": 0.03}, {"measurement": "Impurity B", "setting": "[5]", "value": 0.26}, {"measurement": "Impurity A", "setting": "[6]", "value": 0.04}, {"measurement": "Impurity B", "setting": "[6]", "value": 0.29}, {"measurement": "Impurity A", "setting": "[7]", "value": 0.06}, {"measurement": "Impurity B", "setting": "[7]", "value": 0.38}, {"measurement": "Impurity C", "setting": "29.5 days, stored at 25° C., listed as 3.93 Na salt", "value": 0.06}]}
